{"source": "patent US20240166596A1", "about": "“SULFAMOYL BENZENE DERIVATIVES AND USES THEREOF” (AphioTx Inc., priority 2021, published 2024)", "biological_target": "T1, rPanx1 (Rattus norvegicus Pannexin-1) expressed in 293T cells (Rattus norvegicus, UniProt P60570)", "T1 construct": "expressed in transfected cells; host or cells: Human embryonic kidney-293T cells (ATCC), transient Lipofectamine 2000 transfection", "T1 sequence (P60570 whole entry)": "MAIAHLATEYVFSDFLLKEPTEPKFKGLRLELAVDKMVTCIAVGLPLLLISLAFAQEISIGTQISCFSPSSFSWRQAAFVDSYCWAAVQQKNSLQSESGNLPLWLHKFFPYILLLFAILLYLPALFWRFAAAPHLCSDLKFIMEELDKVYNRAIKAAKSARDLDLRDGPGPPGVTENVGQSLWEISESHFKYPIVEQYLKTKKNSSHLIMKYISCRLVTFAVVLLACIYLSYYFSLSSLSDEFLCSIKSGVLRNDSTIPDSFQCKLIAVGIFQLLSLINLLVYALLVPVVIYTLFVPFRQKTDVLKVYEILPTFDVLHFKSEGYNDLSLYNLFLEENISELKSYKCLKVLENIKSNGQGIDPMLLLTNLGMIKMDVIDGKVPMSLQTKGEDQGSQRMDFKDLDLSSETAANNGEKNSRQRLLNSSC", "experiment": "Whole-cell patch-clamp of Panx1 currents in transfected 293T cells", "type": "cell-based, Homo sapiens", "conditions": "voltage ramp -80 to +80 mV, various doses", "method": "To further compare the effects of probenecid, Compounds 1 and 5 on Pannexin-1 channels […] Panx-1 was expressed in embryonic kidney-293T cells (293T) and channel activity was assessed at various doses of each compound.\nRattus norvegicus Pannexin-1 (rPanx1) complementary DNA (cDNA) was cloned between BamHI and SalI sites in a pRK5 expression vector (pRK5-rPanx1). Enhanced green fluorescent protein (EGFP) plasmid (pEGFP-C1) was commercially purchased (addgene).\nHuman embryonic kidney-293T cells (293T) were purchased from ATCC and routinely maintained in the laboratory. Adherent 293T cells were grown in Dulbecco's modified Eagle's medium (Thermo Fisher) supplemented with 10% fetal bovine serum (Thermo Fisher) and 1% penicillin-streptomycin (10,000 U/mL; Thermo Fisher) at 37° C. in a 5% CO2 humidified growth incubator. 293T cells between the passages 6-20 were used for experiments. For patch-clamp recordings, 293T cells reaching 40-60% confluency on 35 mm culture plates were transiently transfected using Lipofectamine 2000 (Thermo Fisher) 36-48 hours before experiments, using the manufacturer's protocol. 293T cells were transfected with 2.5 μg pRK5-rPanx1 and 0.5 μg pEGFP-C1 cDNAs at a mixed ratio of 5:1 to identify positively transfected cells.\nOn the day of experiments, transiently transfected 293T cells overexpressing rPanx1 and EGFP cDNAs were seeded onto poly-d-lysine coated glass coverslips at least 2 hours before recordings. […] Data was acquired using Clampex (v.10) software and an Axon Digidata 1550A digitizer (Axon Instruments) at 10 kHz, with currents analyzed offline in Clampfit software (v.10.7). […]\n293T cells were voltage clamped at −60 mV in whole-cell configuration and exposed to a 300 ms voltage ramp (−80 to +80 mV) before stepping back to −60 mV to record rPanx1 voltage-sensitive currents. Baseline currents were first measured in extracellular solution before perfusion of drug compounds in incrementally increasing concentrations. […]", "data": [{"smiles": "CCCN(CCC)S(=O)(=O)c1ccc(C(O)(C(F)(F)F)C(F)(F)F)cc1", "note": "[Compound 1, 4-(1,1,1,3,3,3-hexafluoro-2-hydroxypropan-2-yl)-N,N-dipropylbenzenesulfonamide]", "values": [{"measurement": "Panx1 inhibitory potency relative to Probenecid (patch-clamp)", "result": "more potent"}]}]}
